Experimental data from ChEMBL document CHEMBL4417631, “Oral peptide inhibitors of interleukin-23 receptor and their use to treat inflammatory bowel diseases” (2017).
*1 amine or outer side, *2 acyl side, *3 side chain or, on linkers, in order; H or OH if unused. Where a SMILES comes first, the peptide text is derived from it. Bridges are numbered along the chain shown (N, C = ends). [ ]: non-standard residue; d: D form. Abu(4-yl) = O=C([C@H](CC[*:3])N[*:1])[*:2]; 2Nal = N[C@@H](Cc1ccc2ccccc2c1)C(=O)O; AEF = NCCOc1ccc(C[C@H](N)C(=O)O)cc1; αMeK = C[C@](N)(CCCCN)C(=O)O

Experiments:
Interleukin-23 receptor [1] = biological target: T1, Interleukin-23 receptor (Homo sapiens, UniProt Q5VWK5); assay: Inhibition of interleukin-23 binding to human interleukin-23 receptor incubated for 2 hrs by competitive binding ELISA
T1 sequence (Q5VWK5 whole entry): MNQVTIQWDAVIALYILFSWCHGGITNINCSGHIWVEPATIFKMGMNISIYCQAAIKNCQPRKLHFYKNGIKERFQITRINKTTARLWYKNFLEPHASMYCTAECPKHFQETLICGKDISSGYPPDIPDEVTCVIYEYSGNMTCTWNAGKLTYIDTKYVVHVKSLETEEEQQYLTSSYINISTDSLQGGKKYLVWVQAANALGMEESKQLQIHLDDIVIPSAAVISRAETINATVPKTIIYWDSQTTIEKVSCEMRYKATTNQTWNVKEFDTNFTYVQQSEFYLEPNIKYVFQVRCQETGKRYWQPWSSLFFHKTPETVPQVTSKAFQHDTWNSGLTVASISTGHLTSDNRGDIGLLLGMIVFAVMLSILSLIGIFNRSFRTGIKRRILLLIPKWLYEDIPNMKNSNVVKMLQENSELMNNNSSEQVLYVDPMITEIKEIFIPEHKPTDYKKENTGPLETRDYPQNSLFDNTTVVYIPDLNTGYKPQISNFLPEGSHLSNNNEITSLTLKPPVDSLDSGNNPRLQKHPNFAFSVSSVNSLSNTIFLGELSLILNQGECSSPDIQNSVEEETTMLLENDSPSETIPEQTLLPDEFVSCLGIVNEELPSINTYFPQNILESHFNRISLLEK

Interleukin-23 receptor [2] = biological target: T1, Interleukin-23 receptor; assay: Inhibition of interleukin-23 receptor in human DB cells assessed as reduction in IL-23-stimulated STAT3 phosphorylation incubated for 30 mins by HTRF assay; format: cell-based
[3] = Half life in simulated gastric fluid at 20 uM by LC-MS/MS analysis; format: ADME
[4] = Half life in simulated intestinal fluid at 20 uM by LC-MS/MS analysis; format: ADME

SMILES	IC50 (Interleukin-23 receptor [1])	IC50 (Interleukin-23 receptor [2])	half-life at 20 µM [3]	half-life at 20 µM [4]
CC(=O)N[C@H]1CCSC[C@@H](C(=O)N[C@@H](Cc2ccc(OCCN)cc2)C(=O)N[C@@H](Cc2ccc3ccccc3c2)C(=O)N[C@@](C)(CCCCN)C(=O)N[C@@H](CC(N)=O)C(=O)N[C@@H](CC(N)=O)C(=O)NCC(N)=O)NC(=O)[C@H](CCC(N)=O)NC(=O)[C@H](Cc2c[nH]c3ccccc23)NC(=O)[C@H]([C@@H](C)O)NC(=O)[C@H](CCC(N)=O)NC1=O (Ac-[Abu(4-yl)]QTWQC[AEF][2Nal][αMeK]NNG-NH2; thioether 1-6)	< 10 nM	< 10 nM	3 to 6 h	3 to 6 h
CC(=O)N[C@H](C(=O)N[C@@H](CCC(N)=O)C(=O)N[C@H](C(=O)N[C@@H](Cc1c[nH]c2ccccc12)C(=O)N[C@@H](CCC(N)=O)C(=O)N[C@H](C(=O)N[C@@H](Cc1ccc(OCCN)cc1)C(=O)N[C@@H](Cc1ccc2ccccc2c1)C(=O)NC(C)(C)C(=O)N[C@@H](CCC(=O)O)C(=O)N[C@@H](CC(N)=O)C(=O)N[C@@H](CC(N)=O)C(N)=O)C(C)(C)S)[C@@H](C)O)C(C)(C)S	< 10 nM	< 10 nM	> 6 h	> 6 h
CC(=O)N[C@H]1CCSC[C@@H](C(=O)N[C@@H](Cc2ccc(OCCN)cc2)C(=O)N[C@@H](Cc2ccc3ccccc3c2)C(=O)N[C@@](C)(CCCCN)C(=O)N[C@@H](CCC(=O)O)C(=O)N[C@@H](CC(N)=O)C(=O)NCC(N)=O)NC(=O)[C@H](CCC(N)=O)NC(=O)[C@H](Cc2c[nH]c3ccccc23)NC(=O)[C@H]([C@@H](C)O)NC(=O)[C@H]([C@@H](C)O)NC1=O	< 10 nM	< 10 nM	3 to 6 h	3 to 6 h
CC(=O)N[C@H]1CCSC[C@@H](C(=O)N[C@@H](Cc2ccc(OCCN)cc2)C(=O)N[C@@H](Cc2ccc3ccccc3c2)C(=O)NC(C)(C)C(=O)N[C@@H](CCC(=O)O)C(=O)N[C@@H](CC(N)=O)C(=O)NCC(N)=O)NC(=O)[C@H](CCC(N)=O)NC(=O)[C@H](Cc2c[nH]c3ccccc23)NC(=O)[C@H]([C@@H](C)O)NC(=O)[C@H](CCC(N)=O)NC1=O	< 10 nM	< 10 nM	2 to 3 h	< 1 h
CC(=O)NCCCC[C@H](NC(=O)[C@](C)(CCCCNC(C)=O)NC(=O)[C@H](Cc1ccc2ccccc2c1)NC(=O)[C@H](Cc1ccc(OCCNC(C)=O)cc1)NC(=O)[C@@H](NC(=O)[C@H](CCC(N)=O)NC(=O)[C@H](Cc1c[nH]c2ccccc12)NC(=O)[C@@H](NC(=O)[C@H](CCC(N)=O)NC(=O)[C@@H](NC(C)=O)C(C)(C)S)[C@@H](C)O)C(C)(C)S)C(=O)N[C@@H](CC(N)=O)C(=O)NCC(N)=O	< 10 nM	< 10 nM	> 6 h	> 6 h
CC(=O)NCCOc1ccc(C[C@H](NC(=O)[C@@H](NC(=O)[C@H](CCC(N)=O)NC(=O)[C@H](Cc2c[nH]c3ccccc23)NC(=O)[C@@H](NC(=O)[C@H](CCC(N)=O)NC(=O)[C@@H](NC(C)=O)C(C)(C)S)[C@@H](C)O)C(C)(C)S)C(=O)N[C@@H](Cc2ccc3ccccc3c2)C(=O)N[C@@](C)(CC(C)C)C(=O)N[C@@H](CCC(N)=O)C(=O)N[C@@H](CC(N)=O)C(=O)N[C@@H](CC(N)=O)C(N)=O)cc1	< 10 nM	< 10 nM	> 6 h	> 6 h
CC(=O)NCCCC[C@H](NC(=O)C(C)(C)NC(=O)[C@H](Cc1ccc2ccccc2c1)NC(=O)[C@H](Cc1ccc(OCCN)cc1)NC(=O)[C@@H](NC(=O)[C@H](CCC(N)=O)NC(=O)[C@H](Cc1c[nH]c2ccccc12)NC(=O)[C@@H](NC(=O)[C@H](CCC(N)=O)NC(=O)[C@@H](NC(C)=O)C(C)(C)S)[C@@H](C)O)C(C)(C)S)C(=O)N[C@@H](CC(N)=O)C(=O)N[C@@H](CCC(N)=O)C(N)=O	< 10 nM	< 10 nM	> 6 h	> 6 h
CC(=O)NCCOc1ccc(C[C@H](NC(=O)[C@@H](NC(=O)[C@H](CCC(N)=O)NC(=O)[C@H](Cc2c[nH]c3ccccc23)NC(=O)[C@@H](NC(=O)[C@H](CCC(N)=O)NC(=O)[C@@H](NC(C)=O)C(C)(C)S)[C@@H](C)O)C(C)(C)S)C(=O)N[C@@H](Cc2ccc3ccccc3c2)C(=O)NC(C)(C)C(=O)N[C@@H](CCC(=O)O)C(=O)N[C@@H](CC(N)=O)C(=O)N[C@@H](CC(N)=O)C(N)=O)cc1	10 to 25 nM	< 10 nM	> 6 h	> 6 h
CC(=O)N[C@H]1CCSC[C@@H](C(=O)N[C@@H](Cc2ccc(OCCN)cc2)C(=O)N[C@@H](Cc2ccc3ccccc3c2)C(=O)N[C@@](C)(CCCCN)C(=O)N[C@@H](CCCCNC(=O)c2ccccc2)C(=O)N[C@@H](CC(N)=O)C(=O)NCC(N)=O)NC(=O)[C@H](CCC(N)=O)NC(=O)[C@H](Cc2c[nH]c3ccccc23)NC(=O)[C@H]([C@@H](C)O)NC(=O)[C@H](CCC(N)=O)NC1=O	< 10 nM	< 10 nM	> 6 h	3 to 6 h
CC(=O)NCCCC[C@H](NC(=O)C(C)(C)NC(=O)[C@H](Cc1ccc2ccccc2c1)NC(=O)[C@H](Cc1ccc(OCCN)cc1)NC(=O)[C@@H]1CSCC[C@H](NC(C)=O)C(=O)N[C@@H](CCC(N)=O)C(=O)N[C@@H]([C@@H](C)O)C(=O)N[C@@H](Cc2c[nH]c3ccccc23)C(=O)N[C@@H](CCC(N)=O)C(=O)N1)C(=O)N[C@@H](CCC(N)=O)C(=O)NCC(N)=O	10 to 25 nM	< 10 nM	< 1 h	2 to 3 h
CC(=O)NCCCC[C@H](NC(=O)[C@](C)(CC(C)C)NC(=O)[C@H](Cc1ccc2ccccc2c1)NC(=O)[C@H](Cc1ccc(OCCNC(C)=O)cc1)NC(=O)[C@@H](NC(=O)[C@H](CCC(N)=O)NC(=O)[C@H](Cc1c[nH]c2ccccc12)NC(=O)[C@@H](NC(=O)[C@H](CCC(N)=O)NC(=O)[C@@H](NC(C)=O)C(C)(C)S)[C@@H](C)O)C(C)(C)S)C(=O)N[C@@H](CC(N)=O)C(=O)N[C@@H](CC(N)=O)C(N)=O	< 10 nM	< 10 nM	> 6 h	> 6 h
CC(=O)NCCCC[C@](C)(NC(=O)[C@H](Cc1ccc2ccccc2c1)NC(=O)[C@H](Cc1ccc(OCCNC(C)=O)cc1)NC(=O)[C@@H](NC(=O)[C@H](CCC(N)=O)NC(=O)[C@H](Cc1c[nH]c2ccccc12)NC(=O)[C@@H](NC(=O)[C@H](CCC(N)=O)NC(=O)[C@@H](NC(C)=O)C(C)(C)S)[C@@H](C)O)C(C)(C)S)C(=O)N[C@@H](CCC(=O)O)C(=O)N[C@@H](CC(N)=O)C(=O)NCC(N)=O	10 to 25 nM	< 10 nM	> 6 h	3 to 6 h

More lines, now with the values ahead:

IC50 (Interleukin-23 receptor [1])	IC50 (Interleukin-23 receptor [2])	half-life at 20 µM [3]	half-life at 20 µM [4]	SMILES
10 to 25 nM	< 10 nM	> 6 h	> 6 h	CC(=O)NCCCC[C@](C)(NC(=O)[C@H](Cc1ccc2ccccc2c1)NC(=O)[C@H](Cc1ccc(OCCNC(C)=O)cc1)NC(=O)[C@@H](NC(=O)[C@H](CCC(N)=O)NC(=O)[C@H](Cc1c[nH]c2ccccc12)NC(=O)[C@@H](NC(=O)[C@H](CCC(N)=O)NC(=O)[C@@H](NC(C)=O)C(C)(C)S)[C@@H](C)O)C(C)(C)S)C(=O)N[C@@H](CCC(=O)O)C(=O)N[C@@H](CC(N)=O)C(=O)N[C@@H](C)C(N)=O
< 10 nM	< 10 nM	> 6 h	> 6 h	CC(=O)NCCCC[C@H](NC(=O)[C@](C)(CCCCNC(C)=O)NC(=O)[C@H](Cc1ccc2ccccc2c1)NC(=O)[C@H](Cc1ccc(OCCNC(C)=O)cc1)NC(=O)[C@@H](NC(=O)[C@H](CCC(N)=O)NC(=O)[C@H](Cc1c[nH]c2ccccc12)NC(=O)[C@@H](NC(=O)[C@H](CCC(N)=O)NC(=O)[C@@H](NC(C)=O)C(C)(C)S)[C@@H](C)O)C(C)(C)S)C(=O)N[C@@H](CC(N)=O)C(=O)N[C@@H](CC(N)=O)C(N)=O
< 10 nM	< 10 nM	2 to 3 h	< 1 h	CC(=O)NCCCC[C@H](NC(=O)[C@](C)(CO)NC(=O)[C@H](Cc1ccc2ccccc2c1)NC(=O)[C@H](Cc1ccc(OCCN)cc1)NC(=O)[C@@H]1CSCC[C@H](NC(C)=O)C(=O)N[C@@H](CCC(N)=O)C(=O)N[C@@H]([C@@H](C)O)C(=O)N[C@@H](Cc2c[nH]c3ccccc23)C(=O)N[C@@H](CCC(N)=O)C(=O)N1)C(=O)N[C@@H](CC(N)=O)C(=O)NCC(N)=O
< 10 nM	< 10 nM	3 to 6 h	3 to 6 h	CC(=O)NCCCC[C@H](NC(=O)[C@](C)(CCCN)NC(=O)[C@H](Cc1ccc2ccccc2c1)NC(=O)[C@H](Cc1ccc(OCCN)cc1)NC(=O)[C@@H]1CSCC[C@H](NC(C)=O)C(=O)N[C@@H](CCC(N)=O)C(=O)N[C@@H]([C@@H](C)O)C(=O)N[C@@H](Cc2c[nH]c3ccccc23)C(=O)N[C@@H](CCC(N)=O)C(=O)N1)C(=O)N[C@@H](CC(N)=O)C(=O)NCC(N)=O
< 10 nM	< 10 nM	3 to 6 h	2 to 3 h	CC(=O)NCCCC[C@H](NC(=O)C(C)(C)NC(=O)[C@H](Cc1ccc2ccccc2c1)NC(=O)[C@H](Cc1ccc(OCCN)cc1)NC(=O)[C@@H](NC(=O)[C@H](CCC(N)=O)NC(=O)[C@H](Cc1c[nH]c2ccccc12)NC(=O)[C@@H](NC(=O)[C@H](CCC(N)=O)NC(=O)[C@@H](NC(C)=O)C(C)(C)S)[C@@H](C)O)C(C)(C)S)C(=O)N[C@@H](CC(N)=O)C(=O)N[C@@H](CC(N)=O)C(N)=O
